# System: K24384-001-R-PDC complex spheroid viability
# Assay: Anticancer human tumor K24384-001-R-PDC patient-derived pancreatic adenocarcinoma cell line growth inhibition
# Details: for IC50: curve of first compound; for viability, T/C: stronger effect = lower value
# Outline: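 Multicellular complex spheroids of tumor cells with human endothelial cells (HUVEC) and mesenchymal stem cells; the LSD1 inhibitor iadademstat was combined with standard-of-care or investigational agents. Top concentration at or near clinical Cmax, half-log dilutions; final DMSO ≤0.25%.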
# [1] = second compound 0.1 µM, first compound 0.0316 µM
# [2] = second compound 0.1 µM, first compound 0.1 µM
# [3] = second compound 0.1 µM, first compound 0.316 µM
# [4] = second compound 0.1 µM, first compound 1 µM
# [5] = second compound 0.1 µM, first compound 3.16 µM
# [6] = second compound 0.1 µM, first compound 10 µM
# [7] = second compound 0.316 µM, first compound 0.0316 µM
# [8] = second compound 0.316 µM, first compound 0.1 µM
# [9] = second compound 0.316 µM, first compound 0.316 µM
# [10] = second compound 0.316 µM, first compound 1 µM
# [11] = second compound 0.316 µM, first compound 3.16 µM
# [12] = second compound 0.316 µM, first compound 10 µM
# [13] = second compound 1 µM, first compound 0.0316 µM
# [14] = second compound 1 µM, first compound 0.1 µM
# [15] = second compound 1 µM, first compound 0.316 µM
# [16] = second compound 1 µM, first compound 1 µM
# [17] = second compound 1 µM, first compound 3.16 µM
# [18] = second compound 1 µM, first compound 10 µM
# [19] = second compound 3.16 µM, first compound 0.0316 µM
# [20] = second compound 3.16 µM, first compound 0.1 µM
# [21] = second compound 3.16 µM, first compound 0.316 µM
# [22] = second compound 3.16 µM, first compound 1 µM
# [23] = second compound 3.16 µM, first compound 3.16 µM
# [24] = second compound 3.16 µM, first compound 10 µM
# [25] = second compound 10 µM, first compound 0.0316 µM
# [26] = second compound 10 µM, first compound 0.1 µM
# [27] = second compound 10 µM, first compound 0.316 µM
# [28] = second compound 10 µM, first compound 1 µM
# [29] = second compound 10 µM, first compound 3.16 µM
# [30] = second compound 10 µM, first compound 10 µM
# 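Note: spheroids exposed to agents for seven days before luminescence viability reading.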
# 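Throughout, for viability, T/C: 100% = DMSO vehicle control viability.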
SMILES,IC50 (second compound 0.1 µM) [nM],IC50 (second compound 0.316 µM) [nM],IC50 (second compound 1 µM) [nM],IC50 (second compound 3.16 µM) [nM],IC50 (second compound 10 µM) [nM],"viability, T/C [1] [%]","viability, T/C [2] [%]","viability, T/C [3] [%]","viability, T/C [4] [%]","viability, T/C [7] [%]","viability, T/C [8] [%]","viability, T/C [9] [%]","viability, T/C [10] [%]","viability, T/C [13] [%]","viability, T/C [14] [%]","viability, T/C [15] [%]","viability, T/C [16] [%]","viability, T/C [19] [%]","viability, T/C [20] [%]","viability, T/C [21] [%]",other results
CC(C)c1c(-c2ccccc2)nc2c(C#N)c[nH]n2c1=O + NC1CCC(NC2CC2c2ccccc2)CC1,> 10000,> 10000,> 10000,> 10000,> 10000,78.2,80.2,77.7,77.3,78.3,70.4,85.8,72.2,72.5,67.4,96.3,75.3,73,81.5,82.5,"viability, T/C [5]: 81.4%; viability, T/C [6]: 81%; viability, T/C [11]: 77.1%; viability, T/C [12]: 87.5%; viability, T/C [17]: 75%; viability, T/C [18]: 97.4%; viability, T/C [22]: 71%; viability, T/C [23]: 75%; viability, T/C [24]: 77.9%; viability, T/C [25]: 77.2%; viability, T/C [26]: 74.7%; viability, T/C [27]: 80.2%; viability, T/C [28]: 76.6%; viability, T/C [29]: 80.1%; viability, T/C [30]: 83.6%"
CC1COCCN1c1cc(-c2ccnn2C)c2ccnc(-c3ccn[nH]3)c2n1 (stereo not given) + NC1CCC(NC2CC2c2ccccc2)CC1,56.6,< 3.16,7.71,9.22,5.07,49,45.1,52.2,42.4,42.5,43.3,51.6,44.4,41.6,40.2,47.5,44.2,41.8,42,49.7,"viability, T/C (second compound 0.1 µM, first compound 0.00316 µM): 54.7%; viability, T/C (second compound 0.1 µM, first compound 0.01 µM): 56.7%; viability, T/C (second compound 0.316 µM, first compound 0.00316 µM): 52.6%; viability, T/C (second compound 0.316 µM, first compound 0.01 µM): 48.3%; viability, T/C (second compound 1 µM, first compound 0.00316 µM): 51%; viability, T/C (second compound 1 µM, first compound 0.01 µM): 56.5%; viability, T/C (second compound 3.16 µM, first compound 0.00316 µM): 55.4%; viability, T/C (second compound 3.16 µM, first compound 0.01 µM): 51.7%; viability, T/C [22]: 36.2%; viability, T/C (second compound 10 µM, first compound 0.00316 µM): 48.4%; viability, T/C (second compound 10 µM, first compound 0.01 µM): 54.9%; viability, T/C [25]: 39.2%; viability, T/C [26]: 34.7%; viability, T/C [27]: 33.2%; viability, T/C [28]: 31.6%"
COc1ccc([C@@H](O)c2cc(-c3ncnc4cc(N5CCOCC5)ccc34)c(F)cc2Cl)nn1 + NC1CCC(NC2CC2c2ccccc2)CC1,1040,1180,1120,1180,516,94.5,114,89.8,49,112,87.4,69.6,59.8,79.7,98.3,79.2,50.4,77.7,102,77.9,"viability, T/C [5]: 30.2%; viability, T/C [6]: 14.2%; viability, T/C [11]: 30.8%; viability, T/C [12]: 13.9%; viability, T/C [17]: 28.4%; viability, T/C [18]: 13.4%; viability, T/C [22]: 55%; viability, T/C [23]: 23.9%; viability, T/C [24]: 14.7%; viability, T/C [25]: 71.3%; viability, T/C [26]: 74.8%; viability, T/C [27]: 56.7%; viability, T/C [28]: 37.7%; viability, T/C [29]: 22.9%; viability, T/C [30]: 12.1%"

# From PubChem BioAssay AID1918949 (Molecular Pharmacology Branch, DTP, NCI, 2023)
